Starred links: 1 amine or outer side, 2 acyl side, 3 side chain; linkers in the order of their positions; H or OH if unused. Positions of bridges follow the written chain, without caps; N, C: chain ends. Non-standard residues stand in square brackets, D forms with d. Residues, ends and D or L forms follow the SMILES beside them. Groups on a side chain read outwards from the residue. Primed or numbered codes have the meaning given here. *: point of attachment. Lys(5-FITC)NH2 = NC(=O)[C@H](CCCCNC(=S)Nc1ccc2c(c1)C(=O)OC21c2ccc(O)cc2Oc2cc(O)ccc21)N*; FITC(3) = fluorescein isothiocyanate (N6-fluorescein-thiocarbamoyl on Lys); FITC = O=C1OC2(c3ccc(O)cc3Oc3cc(O)ccc32)c2ccc(NC(=S)*)cc21; Trimesoyl = O=C(c1cc(C(=O)[*:2])cc(C(=O)[*:3])c1)[*:1]; NH(1S,2S-2-CONH2-cPent) = NC(=O)[C@H]1CCC[C@@H]1N*; trimesoyl″ = benzene-1,3,5-tricarbonyl scaffold; Phg = N[C@H](C(=O)O)c1ccccc1; Nle = CCCC[C@H](N)C(=O)O; Dap = NC[C@H](N)C(=O)O; AEEA = NCCOCCOCC(=O)O; βAla = NCCC(=O)O; NHiPr = CC(C)N*
Tests used:
TNFα = molecular target: T1, TNFα (Homo sapiens, UniProt P01375); assay: Fluorescence anisotropy (FA) binding of fluorescently labeled bicyclic peptides to TNFα; conditions: for Kd: Table 5, residue 11 variants with Lys(FITC)
T1 construct: ybbR tag (13 aa) (N); made in house; host or cells: Escherichia coli
Method: FITC-labeled bicyclic peptide (50 or 100 nM) were incubated with varying concentrations of TNFα (0-5 μM) in 30 mM HEPES, pH 7.4, 150 mM NaCl, and 2 mM magnesium acetate for 2 h. The FA values were measured on a Molecular Devices Spectramax M5 spectrofluorimeter, with excitation and emission wavelengths at 485 and 525 nm, respectively. Equilibrium dissociation constants (KD) were determined by plotting the FA values as a function of TNFα concentration and fitting the data to the following equation
[formula] where Y is the measured anisotropy at a given TNFα concentration x; L is the bicyclic peptide concentration; Qb/Qf is the correction fact for dye-protein interaction; Amax is the maximum anisotropy when all the peptides are bound to TNFα, while Amin is the minimum anisotropy. Competition experiments were performed by incubating 100 nM Asn-Asn-Asn-Lys(FITC)-labeled anticachexin C1 (Table 1), 2 μM of TNFα, and varying concentrations of unlabeled competitor peptide (0-20 μM) in the above buffer for 2 h. The FA values were plotted against the competitor peptide concentration to determine the IC50 values.
To identify residues significant for TNFα binding, each residue of anticachexin C1 (other than D-alanine at position-3, L-lysine at position-4, and L-2,3-diaminopropionic acid (Dap) at position-10) was individually replaced with an alanine (or D-alanine). To facilitate binding analysis by fluorescence anisotropy (FA), a tetrapeptide NNNK (SEQ ID NO: 1) was added to the C-terminus of each bicyclic peptide and the lysine side chain was labeled with fluorescein isothiocyanate (FITC) during solid-phase synthesis (Scheme 1). The three asparagine residues were added to improve the aqueous solubility of the bicyclic peptides. The bicyclic peptide was prepared by first synthesizing the full-length linear sequence on Rink amide resin using standard Fmoc/HBTU chemistry. The side chains of the two internal cyclization residues, L-lysine and Dap, were protected with monomethoxytrityl (Mmt) groups, whereas the C-terminal lysine was protected with an allyloxycarbonyl (Alloc) group. After removal of the N-terminal Fmoc group, a trimesic acid was coupled to the N-terminal amine using HBTU as the coupling agent. Next, the Mmt groups were selectively removed from the Lys and Dap side chains by 2% TFA and the peptide was cyclized by treatment with (benzotriazol-1-yloxy)tripyrrolidinophosphonium hexafluorophosphate (PyBOP). The Alloc group on the C-terminal lysine side chain was removed by treatment with Pd(PPh3)4 and the bicyclic peptide was selectively labeled at the C-terminal lysine by treating the resin with FITC. […] On the other hand, phenylglycine (Phg)-1 and glycine-7 play more minor roles in binding.

TNFα-TNFR1 interaction = molecular target: T2, TNFα-TNFR1 interaction (Homo sapiens, UniProt P01375); assay: ELISA inhibition of TNFα-TNFR1 interaction (immobilized biotinylated TNFα, TNFR1-HRP); format: binding; conditions: Table 5; peptides without Lys(FITC) label
T2 construct: made in house; host or cells: Escherichia coli (TNFα)
Method: Inhibition of TNFα-TNRF1 interaction by ELISA was carried out as previously described (Lian, W.; et al., supra).
Because of its high-throughput capability, FA analysis had been used to generate all of the SAR data described above. […] To confirm the SAR data obtained by FA analysis, some of the compounds in Table 5 (as well as new compounds) were resynthesized without the Lys(FITC) label and employed a more sensitive ELISA-based assay to determine the IC50 values for inhibition of the TNFα-TNFR1 interaction. Briefly, biotinylated TNFα was immobilized onto a NeutrAvidin-coated surface. TNFR1 conjugated with horseradish peroxidase (HRP) (0.5 nM) was added along with different concentrations of a peptide inhibitor. After washing, the amount of bound TNFR1-HRP was quantitated by ELISA. […] In agreement with the FA results, either extension at the C-terminus of β-Ala with another amino acid (C1-67 to C1-70) or side-chain modification of β-Ala (C1-71 to C1-73) decreased TNFα binding.

[1] = molecular target: T3, Recombinant TNFα containing an N-terminal 13-aa ybbR tag (human, UniProt P01375 77-233, biotin at the ybbR tag in the ELISA assays); assay: FA, FITC-peptide + TNFα titration
T3 construct: Expressed in E. coli; Same construct used unlabelled (FA) and biotinylated on NeutrAvidin (ELISA); also called tumor necrosis factor-alpha; human TNFα; not shown: N-terminal 13-aa ybbR tag
Method: (§1) The FA values were measured on a Molecular Devices Spectramax M5 spectrofluorimeter, with excitation and emission wavelengths at 485 and 525 nm, respectively. Equilibrium dissociation constants (KD) were determined by plotting the FA values as a function of TNFα concentration and fitting the data to the following equation $$Y = \frac{\left(Amin + \left(Amax \times \frac{Q_b}{Q_f} - Amin\right)\left(\frac{(L+x+K_d) - \sqrt{((L+x+K_d)^2 - 4Lx)}}{2L}\right)\right)}{\left(1 + \left(\frac{Q_b}{Q_f} - 1\right)\left(\frac{(L+x+K_d) - \sqrt{((L+x+K_d)^2 - 4Lx)}}{2L}\right)\right)}$$
(§2) where Y is the measured anisotropy at a given TNFα concentration x; L is the bicyclic peptide concentration; Qb/Qf is the correction fact for dye-protein interaction; Amax is the maximum anisotropy when all the peptides are bound to TNFα, while $Amin$ is the minimum anisotropy. […] The FA values were plotted against the competitor peptide concentration to determine the IC$50$ values.

[2] = molecular target: T3, Recombinant TNFα containing an …; assay: FA; against C1
Method: as §1, §2

T3 sequence (P01375 77-233): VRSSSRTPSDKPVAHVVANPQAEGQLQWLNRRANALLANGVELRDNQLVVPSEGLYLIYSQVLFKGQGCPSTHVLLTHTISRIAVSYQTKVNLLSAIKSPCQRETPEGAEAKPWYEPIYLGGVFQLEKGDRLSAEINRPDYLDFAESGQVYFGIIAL

Molecule	Kd (TNFα)	Kd [1]	Fold of Affinity Reduction [2]	also measured
CCCC[C@@H]1NC(=O)c2cc3cc(c2)C(=O)NC[C@@H](C(=O)N[C@@H](CCCCNC(=S)Nc2ccc4c(c2)C(=O)OC42c4ccc(O)cc4Oc4cc(O)ccc42)C(N)=O)NC(=O)[C@H](Cc2ccccc2)NC(=O)[C@@H](CCCCN)NC(=O)CNC(=O)[C@@H](Cc2c[nH]cn2)NC(=O)[C@H](Cc2c[nH]c4ccccc24)NC(=O)[C@H](CCCCNC3=O)NC(=O)[C@@H](CO)NC(=O)[C@H](Cc2ccc(O)cc2)NC1=O [Compound C1-50] ([Nle]Y[dS]KW[dH]G[dK]F[Dap]K(FITC)-NH2; linker N-4-10 via Trimesoyl)	–	–	–	Reduction of TNFα binding affinity (fold) (TNFα; His-9 replaced with Phe, relative to parent): ~30 fold
CCCC[C@@H]1NC(=O)c2cc3cc(c2)C(=O)NC[C@@H](C(=O)Nc2cn(C)cc2C(=O)NCCOCCOCC(=O)N[C@@H](CCCCNC(=S)Nc2ccc4c(c2)C(=O)OC42c4ccc(O)cc4Oc4cc(O)ccc42)C(N)=O)NC(=O)[C@H](Cc2c[nH]cn2)NC(=O)[C@@H](CCCCN)NC(=O)CNC(=O)[C@@H](Cc2c[nH]cn2)NC(=O)[C@H](Cc2c[nH]c4ccccc24)NC(=O)[C@H](CCCCNC3=O)NC(=O)[C@@H](CO)NC(=O)[C@H](Cc2ccc(O)cc2)NC1=O [Compound C1-65]	1900 ± 900 nM	–	–	–
CCCC[C@@H]1NC(=O)c2cc3cc(c2)C(=O)NC[C@@H](C(=O)N[C@@H](CCCCNC(=S)Nc2ccc4c(c2)C(=O)OC42c4ccc(O)cc4Oc4cc(O)ccc42)C(N)=O)NC(=O)[C@H](Cc2c[nH]cn2)NC(=O)[C@@H](CCCCN)NC(=O)CNC(=O)[C@@H](Cc2ccccc2)NC(=O)[C@H](Cc2ccc(O)cc2)NC(=O)[C@H](CCCCNC3=O)NC(=O)[C@@H](C)NC(=O)[C@H](Cc2ccc(O)cc2)NC1=O [Compound C1-5]	–	–	–	Increase of TNFα binding affinity (fold) (TNFα; relative to comparator analogue named in text): ~2 fold
CCCC[C@@H]1NC(=O)c2cc3cc(c2)C(=O)NC[C@@H](C(=O)N[C@@H](CC(=O)NCCOCCOCC(=O)N[C@@H](CCCCNC(=S)Nc2ccc4c(c2)C(=O)OC42c4ccc(O)cc4Oc4cc(O)ccc42)C(N)=O)C(=O)NCC)NC(=O)[C@H](Cc2c[nH]cn2)NC(=O)[C@@H](CCCCN)NC(=O)CNC(=O)[C@@H](Cc2c[nH]cn2)NC(=O)[C@H](Cc2c[nH]c4ccccc24)NC(=O)[C@H](CCCCNC3=O)NC(=O)[C@@H](CO)NC(=O)[C@H](Cc2ccc(O)cc2)NC1=O [Compound C1-60] ([Nle]Y[dS]KW[dH]G[dK]H[Dap]D([AEEA-Lys(5-FITC)NH2])-NHEt; linker N-4-10 via Trimesoyl)	380 ± 140 nM	–	–	–
CCCC[C@@H]1NC(=O)c2cc3cc(c2)C(=O)NC[C@@H](C(=O)NCCC(=O)NCCC(N)=O)NC(=O)[C@H](Cc2c[nH]cn2)NC(=O)[C@@H](CCCCN)NC(=O)CNC(=O)[C@@H](Cc2c[nH]cn2)NC(=O)[C@H](Cc2c[nH]c4ccccc24)NC(=O)[C@H](CCCCNC3=O)NC(=O)[C@@H](CO)NC(=O)[C@H](Cc2ccc(O)cc2)NC1=O [Compound C1-67] ([Nle]Y[dS]KW[dH]G[dK]H[Dap][βAla][βAla]-NH2; linker N-4-10 via Trimesoyl)	–	–	–	IC50 (TNFα-TNFR1 interaction): 1500 ± 900 nM
CCCC[C@@H]1NC(=O)c2cc3cc(c2)C(=O)NC[C@@H](C(=O)N[C@H]2CCC[C@@H]2C(N)=O)NC(=O)[C@H](Cc2c[nH]cn2)NC(=O)[C@@H](CCCCN)NC(=O)CNC(=O)[C@@H](Cc2c[nH]cn2)NC(=O)[C@H](Cc2c[nH]c4ccccc24)NC(=O)[C@H](CCCCNC3=O)NC(=O)[C@@H](CO)NC(=O)[C@H](Cc2ccc(O)cc2)NC1=O [Compound C1-72] ([Nle]Y[dS]KW[dH]G[dK]H[Dap]-{NH(1S,2S-2-CONH2-cPent)}; linker N-4-10 via Trimesoyl)	–	–	–	IC50 (TNFα-TNFR1 interaction): 110 ± 30 nM
[Phg]Y[dA]KY[dF]G[dK]A[Dap]NNNK(FITC(3))-NH2 (linker N-4-10 via trimesoyl″) [Anticachexin C1 His9 → Ala, NNNK(FITC)-tagged]	–	4400 nM	5 fold	–
[Phg]Y[dA]KY[dA]G[dK]H[Dap]NNNK(FITC(3))-NH2 (linker N-4-10 via trimesoyl″) [Anticachexin C1 D-Phe6 → D-Ala, NNNK(FITC)-tagged]	–	3400 nM	4 fold	–

More lines, main results first:

Kd (TNFα)	Kd [1]	Fold of Affinity Reduction [2]	Molecule	also measured
420 ± 210 nM	–	–	CCCC[C@@H]1NC(=O)c2cc3cc(c2)C(=O)NC[C@@H](C(=O)N[C@@H](CC(=O)NCCOCCOCC(=O)N[C@@H](CCCCNC(=S)Nc2ccc4c(c2)C(=O)OC42c4ccc(O)cc4Oc4cc(O)ccc42)C(N)=O)C(=O)NC(C)C)NC(=O)[C@H](Cc2c[nH]cn2)NC(=O)[C@@H](CCCCN)NC(=O)CNC(=O)[C@@H](Cc2c[nH]cn2)NC(=O)[C@H](Cc2c[nH]c4ccccc24)NC(=O)[C@H](CCCCNC3=O)NC(=O)[C@@H](CO)NC(=O)[C@H](Cc2ccc(O)cc2)NC1=O [Compound C1-61] ([Nle]Y[dS]KW[dH]G[dK]H[Dap]D([AEEA-Lys(5-FITC)NH2])-NHiPr; linker N-4-10 via Trimesoyl)	–
160 ± 150 nM	–	–	CCCC[C@@H]1NC(=O)c2cc3cc(c2)C(=O)NC[C@@H](C(=O)N[C@H]2CCC[C@@H]2C(=O)NCCOCCOCC(=O)N[C@@H](CCCCNC(=S)Nc2ccc4c(c2)C(=O)OC42c4ccc(O)cc4Oc4cc(O)ccc42)C(N)=O)NC(=O)[C@H](Cc2c[nH]cn2)NC(=O)[C@@H](CCCCN)NC(=O)CNC(=O)[C@@H](Cc2c[nH]cn2)NC(=O)[C@H](Cc2c[nH]c4ccccc24)NC(=O)[C@H](CCCCNC3=O)NC(=O)[C@@H](CO)NC(=O)[C@H](Cc2ccc(O)cc2)NC1=O [Compound C1-63]	–
340 ± 230 nM	–	–	CCCC[C@@H]1NC(=O)c2cc3cc(c2)C(=O)NC[C@@H](C(=O)N2CCC[C@@H](C(=O)NCCOCCOCC(=O)N[C@@H](CCCCNC(=S)Nc4ccc5c(c4)C(=O)OC54c5ccc(O)cc5Oc5cc(O)ccc54)C(N)=O)C2)NC(=O)[C@H](Cc2c[nH]cn2)NC(=O)[C@@H](CCCCN)NC(=O)CNC(=O)[C@@H](Cc2c[nH]cn2)NC(=O)[C@H](Cc2c[nH]c4ccccc24)NC(=O)[C@H](CCCCNC3=O)NC(=O)[C@@H](CO)NC(=O)[C@H](Cc2ccc(O)cc2)NC1=O [Compound C1-64]	–
–	5900 nM	7 fold	[Phg]Y[dA]KY[dF]G[dA]H[Dap]NNNK(FITC(3))-NH2 (linker N-4-10 via trimesoyl″) [Anticachexin C1 D-Lys8 → D-Ala, NNNK(FITC)-tagged]	–
–	1200 nM	1.5 fold	[Phg]Y[dA]KY[dF]A[dK]H[Dap]NNNK(FITC(3))-NH2 (linker N-4-10 via trimesoyl″) [Anticachexin C1 Gly7 → Ala, NNNK(FITC)-tagged]	–
